System: Mus musculus
Assay: Compound was evaluated for antinociceptive potency by subcutaneous administration in mice using the hotplate assay
Assay type: functional
Settings: sc

Structure (SMILES)	ED50
CC1[C@@H]2Cc3ccc(O)cc3[C@@]1(C)CCN2CCc1ccccc1 (some centres undefined)	0.1 mg/kg
C[C@H]1C2Cc3ccc(O)cc3[C@]1(C)CCN2C	2.6 mg/kg
Oc1cccc([C@@]23CCC[C@@H](C2)N(CCc2ccccc2)CC3)c1	3.99 mg/kg
CN1CC[C@]2(c3cccc(O)c3)CCC[C@H]1C2	2 mg/kg

Source: ChEMBL document CHEMBL1126050, “Edward E. Smissman-Bristol-Myers Squibb Award Address. The role of concepts in structure-activity relationship studies of opioid ligands” (1992)
